The term IC50 denotes the concentration needed to halve the response being measured.

The values that follow come from patent US20240300954A1, “NOVEL MODULATORS OF THE SIGMA-2 RECEPTOR AND THEIR METHOD OF USE” (Temple University-Of The Commonwealth System of Higher …, priority 2017, published 2024).

The target in the assay is sigma-2 receptors (Homo sapiens, UniProt Q5BJF2). Briefly: Radiolabel Binding Studies for the Sigma-2 Receptor (3H-DTG competition). The following applies: 3H-DTG radioligand; membrane fractions of cells expressing recombinant sigma-2 receptors. As for the experimental part:
A solution of the compound of the disclosure to be tested is prepared as a 1-mg/ml stock in Assay Buffer or DMSO according to its solubility. A similar stock of the reference compound Haloperidol is also prepared as a positive control. Eleven dilutions (5× assay concentration) of the compound of the disclosure and Haloperidol are prepared in the Assay Buffer by serial dilution to yield final corresponding assay concentrations ranging from 10 pM to 10 μM.
A stock concentration of 5 nM ^3H-1,3-di-(2-tolyl)guanidine (^3H-DTG) is prepared in 50 mM Tris-HCl, 10 mM MgCl2, 1 mM EDTA, pH 7.4 (Assay Buffer). Aliquots (50 μl) of radioligand are dispensed into the wells of a 96-well plate containing 100 μl of Assay Buffer. Duplicate 50 μl aliquots of the compound of the disclosure test and Haloperidol positive control reference compound serial dilutions are added.
Membrane fractions of cells expressing recombinant sigma-2 receptors (50 μL) are dispensed into each well. The membranes are prepared from stably tranfected cell lines expressing sigma-2 receptors cultured on 10-cm plates by harvesting PBS-rinsed monolayers, resuspending and lysing in chilled, hypotonic 50 mM Tris-HCl, pH 7.4, centrifuging at 20,000×g, decanting the supernatant and storing at −80° C.; the membrane preparations are resuspended in 3 ml of chilled Assay Buffer and homogenized by several passages through a 26 gauge needle before using in the assay.
The 250-μl reactions are incubated at room temperature for 1.5 hours, then harvested by rapid filtration onto 0.3% polyethyleneimine-treated, 96-well filter mats using a 96-well Filtermate harvester. Four rapid 500-μl washes are performed with chilled Assay Buffer to reduce non-specific binding. The filter mats are dried, then scintillant is added to the filters and the radioactivity retained on the filters is counted in a Microbeta scintillation counter.
Raw data (dpm) representing total radioligand binding (i.e., specific+non-specific binding) are plotted as a function of the logarithm of the molar concentration of the competitor (i.e., test or reference compound). Non-linear regression of the normalized (i.e., percent radioligand binding compared to that observed in the absence of test or reference compound) raw data is performed in Prism 4.0 (GraphPad Software) using the built-in three parameter logistic model describing ligand competition binding to radioligand-labeled sites:
[formula] • where bottom equals the residual radioligand binding measured in the presence of 10 μM reference compound (i.e., non-specific binding) and top equals the total radioligand binding observed in the absence of competitor. The log IC50 (i.e., the log of the ligand concentration that reduces radioligand binding by 50%) is thus estimated from the data and used to obtain the Ki by applying the Cheng-Prusoff approximation:
[formula] • where [ligand] equals the assay radioligand concentration and KD equals the affinity constant of the radioligand for the target receptor.

sigma-2 receptors, sequence (Q5BJF2 whole entry, looked up): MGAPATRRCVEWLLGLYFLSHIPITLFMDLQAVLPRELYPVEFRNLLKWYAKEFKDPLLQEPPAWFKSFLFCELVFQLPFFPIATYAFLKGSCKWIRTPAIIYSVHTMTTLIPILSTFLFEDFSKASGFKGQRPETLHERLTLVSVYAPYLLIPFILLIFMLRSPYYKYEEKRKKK

In the case of `CCC1(CC)CC(CCN2CC3CN(c4ccccc4)CC3C2)OC1=O` (stereo not drawn) [Entry 1], the IC50 was 3.5 nM.

Consider `CCC1(CC)CC(CCN2CC3CN(c4ccncc4)CC3C2)OC1=O` (stereo not drawn) [Entry 2], for which the IC50 is 29 nM.

In the case of `O=C1OC(CCN2CC3CN(c4ccncc4)CC3C2)CC12CCCCC2` (stereo not drawn) [Entry 3], the IC50 came to 39 nM.

As for `CCC1(CC)CC(CCN2CC3CN(c4ccccc4C(C)C)CC3C2)OC1=O` (stereo not drawn) [Entry 4], the IC50 turned out to be 2 nM.

Consider `CC(C)c1ccccc1N1CC2CN(CCC3CC4(CCCCC4)C(=O)O3)CC2C1` (stereo not drawn) [Entry 5], for which the half-maximal inhibitory concentration (IC50) worked out at 2.4 nM.

In the case of `Cc1cnccc1N1CC2CN(CCC3CC4(CCCCC4)C(=O)O3)CC2C1` (stereo not drawn) [Entry 6], the IC50 was 3.9 nM.

As to `Cc1cc(N2CC3CN(CCC4CC5(CCCCC5)C(=O)O4)CC3C2)ccn1` (stereo not drawn) [Entry 7], the IC50 amounted to 11 nM.

As for `Cc1cc(N2CC3CN(CCC4CC5(CCCCC5)C(=O)O4)CC3C2)cc(C)n1` (stereo not drawn) [Entry 8], the IC50 was 24 nM.

Turning to `O=C1OC(CCN2CC3(C2)CN(c2ccncc2)C3)CC12CCCCC2` (stereo not drawn) [Entry 9], the IC50 was found to be 34 nM.

`CCC1(CC)CC(CCN2CC3(C2)CN(c2ccncc2)C3)OC1=O` (stereo not drawn) [Entry 10]: the IC50 is 59 nM.

On to `O=C1OC(CCN2CC3(C2)CN(c2ccccc2)C3)CC12CCCCC2` (stereo not drawn) [Entry 11], for which the half-inhibitory concentration (IC50) was found to be 30 nM.

With `Cc1cnccc1N1CC2(CN(CCC3CC4(CCCCC4)C(=O)O3)C2)C1` (stereo not drawn) [Entry 12], the IC50 came out at 3.9 nM.

For the compound `Cc1cc(N2CC3(CN(CCC4CC5(CCCCC5)C(=O)O4)C3)C2)ccn1` (stereo not drawn) [Entry 13], the IC50 worked out at 1.2 nM.

For `Cc1cc(N2CC3(CN(CCC4CC5(CCCCC5)C(=O)O4)C3)C2)cc(C)n1` (stereo not drawn) [Entry 14], the IC50 amounted to 1.5 nM.

On to `CCC1(CC)CC(CCN2CC3(C2)CN(c2ccccc2)C3)OC1=O` (stereo not drawn) [Entry 15], for which the IC50 came to 53 nM.

As to `CCC1(CC)CC(CCN2CC3CN(c4ccccc4C#N)CC3C2)OC1=O` (stereo not drawn) [Entry 16], the IC50 turned out to be 6.8 nM.

Turning to `CCC1(CC)CC(CCN2CC3CN(c4cccc(C#N)c4)CC3C2)OC1=O` (stereo not drawn) [Entry 17], the IC50 is 7 nM.

Take `CCC1(CC)CC(CCN2CC3CN(c4ccc(C#N)cc4)CC3C2)OC1=O` (stereo not drawn) [Entry 18]: the IC50 is 9.6 nM.

On to `CCC1(CC)CC(CCN2CC3CN(c4ccccc4OC)CC3C2)OC1=O` (stereo not drawn) [Entry 19], for which the IC50 is 6.5 nM.

`CCC1(CC)CC(CCN2CC3CN(c4cccc(OC)c4)CC3C2)OC1=O` (stereo not drawn) [Entry 20]: the IC50 stood at 25 nM.

With `CCC1(CC)CC(CCN2CC3CN(c4ccc(OC)cc4)CC3C2)OC1=O` (stereo not drawn) [Entry 21], the IC50 worked out at 22 nM.
